Reference: PubChem BioAssay AID2060505 (Molecular Pharmacology Branch, DTP, NCI, 2025)

Test system: 633275-114-R-J1-PDC complex spheroids, viability
Experiment: Anticancer human tumor 633275-114-R-J1-PDC patient-derived endometrial adenocarcinoma cell line growth inhibition [GQUAD]
Details: for IC50: curve of first compound; for viability, T/C: stronger effect = lower value
Method in brief: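 Multi-cell-type spheroids of tumor cells with HUVEC and mesenchymal stem cells, treated with drug combinations. Concentrations descend in half-log steps from near clinical Cmax, or from 10 microM where Cmax is unknown; viability read-out.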

[1] = second compound 0.0316 µM, first compound 0.0316 µM
[2] = second compound 0.0316 µM, first compound 0.1 µM
[3] = second compound 0.0316 µM, first compound 0.316 µM
[4] = second compound 0.0316 µM, first compound 1 µM
[5] = second compound 0.0316 µM, first compound 3.16 µM
[6] = second compound 0.0316 µM, first compound 10 µM
[7] = second compound 0.1 µM, first compound 0.0316 µM
[8] = second compound 0.1 µM, first compound 0.1 µM
[9] = second compound 0.1 µM, first compound 0.316 µM
[10] = second compound 0.1 µM, first compound 1 µM
[11] = second compound 0.1 µM, first compound 3.16 µM
[12] = second compound 0.1 µM, first compound 10 µM
[13] = second compound 0.316 µM, first compound 0.0316 µM
[14] = second compound 0.316 µM, first compound 0.1 µM
[15] = second compound 0.316 µM, first compound 0.316 µM
[16] = second compound 0.316 µM, first compound 1 µM
[17] = second compound 0.316 µM, first compound 3.16 µM
[18] = second compound 0.316 µM, first compound 10 µM
[19] = second compound 1 µM, first compound 0.0316 µM
[20] = second compound 1 µM, first compound 0.1 µM
[21] = second compound 1 µM, first compound 0.316 µM
[22] = second compound 1 µM, first compound 1 µM
[23] = second compound 1 µM, first compound 3.16 µM
[24] = second compound 1 µM, first compound 10 µM
[25] = second compound 3.16 µM, first compound 0.0316 µM
[26] = second compound 3.16 µM, first compound 0.1 µM
[27] = second compound 3.16 µM, first compound 0.316 µM
[28] = second compound 3.16 µM, first compound 1 µM
[29] = second compound 3.16 µM, first compound 3.16 µM
[30] = second compound 3.16 µM, first compound 10 µM
[31] = second compound 10 µM, first compound 0.0316 µM
[32] = second compound 10 µM, first compound 0.1 µM
[33] = second compound 10 µM, first compound 0.316 µM
[34] = second compound 10 µM, first compound 1 µM
[35] = second compound 10 µM, first compound 3.16 µM
[36] = second compound 10 µM, first compound 10 µM
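Also: spheroids exposed to the agents for seven days.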
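For viability, T/C in this document: percent of DMSO vehicle control viability which is 100%.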

Compound CC1COCCN1c1cc(-c2ccnn2C)c2ccnc(-c3ccn[nH]3)c2n1 (stereo not drawn) + Cc1[nH]c2ccc(F)cc2c1-c1nc2c3cccnc3c3ncccc3c2[nH]1 has an IC50 (second compound 0.0316 µM) of 146 nM, an IC50 (second compound 0.1 µM) of 156 nM and an IC50 (second compound 0.316 µM) of 191 nM. The IC50 (second compound 1 µM) was 116 nM, the IC50 (second compound 3.16 µM) was 70.4 nM and the IC50 (second compound 10 µM) was 74.8 nM. The viability, T/C [1] was 77.3%, the viability, T/C [2] was 56.4% and the viability, T/C [3] was 37.1%. The viability, T/C [4] was 27.7%, the viability, T/C [5] was 21.9% and the viability, T/C [6] was 16.8%. The viability, T/C [7] was 80.5%, the viability, T/C [8] was 57.5% and the viability, T/C [9] was 38.3%. The viability, T/C [10] was 26.3%, the viability, T/C [11] was 21.4% and the viability, T/C [12] was 17%. It also gave a viability, T/C [13] of 77.6%, a viability, T/C [14] of 62.9% and a viability, T/C [15] of 39%. The viability, T/C [16] was 28.1%, the viability, T/C [17] was 21.2% and the viability, T/C [18] was 18.4%. It also gave a viability, T/C [19] of 77.9%, a viability, T/C [20] of 52.5% and a viability, T/C [21] of 34.6%. The viability, T/C [22] was 26.6%, the viability, T/C [23] was 23% and the viability, T/C [24] was 17.7%. For the same compound, the viability, T/C [25] was 60.9%, the viability, T/C [26] was 46.1% and the viability, T/C [27] was 31.1%. The viability, T/C [28] was 26.8%, the viability, T/C [29] was 21.7% and the viability, T/C [30] was 17.5%. It also gave a viability, T/C [31] of 61%, a viability, T/C [32] of 46.9% and a viability, T/C [33] of 30.8%. The viability, T/C [34] was 25.1%, the viability, T/C [35] was 21.1% and the viability, T/C [36] was 18.6%.

Work on CC1COCCN1c1cc(C2(O)CC3CCC(C2)O3)c2cnn(-c3ccn[nH]3)c2n1 (stereo not drawn) + Cc1[nH]c2ccc(F)cc2c1-c1nc2c3cccnc3c3ncccc3c2[nH]1 yielded an IC50 (second compound 0.0316 µM) of 99.9 nM, an IC50 (second compound 0.1 µM) of 99.1 nM and an IC50 (second compound 0.316 µM) of 90.4 nM. For the same compound, the IC50 (second compound 1 µM) was 82.9 nM, the IC50 (second compound 3.16 µM) was 47.6 nM and the IC50 (second compound 10 µM) was 38.3 nM. For the same compound, the viability, T/C [1] was 80.1%, the viability, T/C [2] was 49.7% and the viability, T/C [3] was 31.2%. The viability, T/C [4] was 20.5%, the viability, T/C [5] was 14.6% and the viability, T/C [6] was 9.97%. For the same compound, the viability, T/C [7] was 76.6%, the viability, T/C [8] was 50.4% and the viability, T/C [9] was 30%. For the same compound, the viability, T/C [10] was 20.7%, the viability, T/C [11] was 15.8% and the viability, T/C [12] was 10.3%. It also gave a viability, T/C [13] of 75.3%, a viability, T/C [14] of 46.9% and a viability, T/C [15] of 30.2%. The viability, T/C [16] was 21.3%, the viability, T/C [17] was 15.4% and the viability, T/C [18] was 9.62%. For the same compound, the viability, T/C [19] was 70.6%, the viability, T/C [20] was 46.3% and the viability, T/C [21] was 28.8%. The viability, T/C [22] was 20.4%, the viability, T/C [23] was 14.9% and the viability, T/C [24] was 9.89%. The viability, T/C [25] was 56.5%, the viability, T/C [26] was 37.9% and the viability, T/C [27] was 26.5%. It also gave a viability, T/C [28] of 19.4%, a viability, T/C [29] of 14.7% and a viability, T/C [30] of 9.57%. For the same compound, the viability, T/C [31] was 52.4%, the viability, T/C [32] was 38% and the viability, T/C [33] was 25.7%. It also gave a viability, T/C [34] of 18.2%, a viability, T/C [35] of 15.1% and a viability, T/C [36] of 9.9%.

For CC1COCCN1c1cc(C2(S(C)(=N)=O)CC2)nc(-c2ccnc3[nH]ccc23)n1 (stereo not drawn) + Cc1[nH]c2ccc(F)cc2c1-c1nc2c3cccnc3c3ncccc3c2[nH]1, the IC50 (second compound 0.0316 µM) was 3460 nM, the IC50 (second compound 0.1 µM) was 3070 nM and the IC50 (second compound 0.316 µM) was 3550 nM. It also gave an IC50 (second compound 1 µM) of 3240 nM, an IC50 (second compound 3.16 µM) of 1290 nM and an IC50 (second compound 10 µM) of 1380 nM. For the same compound, the viability, T/C [1] was 105%, the viability, T/C [2] was 96.1% and the viability, T/C [3] was 98.3%. It also gave a viability, T/C [4] of 73.9%, a viability, T/C [5] of 52.6% and a viability, T/C [6] of 33.8%. It also gave a viability, T/C [7] of 97.3%, a viability, T/C [8] of 99.9% and a viability, T/C [9] of 96.4%. It also gave a viability, T/C [10] of 78.5%, a viability, T/C [11] of 49.8% and a viability, T/C [12] of 33.2%. The viability, T/C [13] was 102%, the viability, T/C [14] was 97.5% and the viability, T/C [15] was 90.5%. It also gave a viability, T/C [16] of 81.6%, a viability, T/C [17] of 50.4% and a viability, T/C [18] of 33.5%. It also gave a viability, T/C [19] of 90.9%, a viability, T/C [20] of 92.8% and a viability, T/C [21] of 87.6%. The viability, T/C [22] was 73%, the viability, T/C [23] was 50.7% and the viability, T/C [24] was 34.3%. For the same compound, the viability, T/C [25] was 73.7%, the viability, T/C [26] was 76.4% and the viability, T/C [27] was 69.9%. The viability, T/C [28] was 52.6%, the viability, T/C [29] was 38.4% and the viability, T/C [30] was 30.3%. The viability, T/C [31] was 71.7%, the viability, T/C [32] was 71.5% and the viability, T/C [33] was 67%. The viability, T/C [34] was 54.7%, the viability, T/C [35] was 37.6% and the viability, T/C [36] was 27.2%.

With COc1ccc([C@@H](O)c2cc(-c3ncnc4cc(N5CCOCC5)ccc34)c(F)cc2Cl)nn1 + Cc1[nH]c2ccc(F)cc2c1-c1nc2c3cccnc3c3ncccc3c2[nH]1 the IC50 (second compound 0.0316 µM) was 4910 nM, the IC50 (second compound 0.1 µM) was 3710 nM and the IC50 (second compound 0.316 µM) was 2910 nM. For the same compound, the IC50 (second compound 1 µM) was 3150 nM, the IC50 (second compound 3.16 µM) was 1880 nM and the IC50 (second compound 10 µM) was 1410 nM. It also gave a viability, T/C [1] of 107%, a viability, T/C [2] of 91% and a viability, T/C [3] of 82.9%. For the same compound, the viability, T/C [4] was 72.5%, the viability, T/C [5] was 58% and the viability, T/C [6] was 38.5%. For the same compound, the viability, T/C [7] was 96.8%, the viability, T/C [8] was 99.8% and the viability, T/C [9] was 87.5%. The viability, T/C [10] was 66.5%, the viability, T/C [11] was 54.8% and the viability, T/C [12] was 39.7%. For the same compound, the viability, T/C [13] was 89.5%, the viability, T/C [14] was 96.8% and the viability, T/C [15] was 88.9%. It also gave a viability, T/C [16] of 69.2%, a viability, T/C [17] of 50.2% and a viability, T/C [18] of 35.1%. It also gave a viability, T/C [19] of 83.8%, a viability, T/C [20] of 90.5% and a viability, T/C [21] of 85.4%. For the same compound, the viability, T/C [22] was 69.9%, the viability, T/C [23] was 51.1% and the viability, T/C [24] was 33.9%. The viability, T/C [25] was 71.3%, the viability, T/C [26] was 68.3% and the viability, T/C [27] was 63.2%. It also gave a viability, T/C [28] of 56.8%, a viability, T/C [29] of 44.7% and a viability, T/C [30] of 29.7%. It also gave a viability, T/C [31] of 70.3%, a viability, T/C [32] of 69.3% and a viability, T/C [33] of 70.6%. For the same compound, the viability, T/C [34] was 51.3%, the viability, T/C [35] was 42.3% and the viability, T/C [36] was 31.6%.
